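Briefly, cells in 96-well plates were exposed to five compound concentrations for 48 h, and endpoints were estimated by linear interpolation. Here, GI50 denotes the concentration required for 50% inhibition of growth.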 Active and inactive are the calls of the source. Rule as the data show it: active = GI50 up to about 1.1 µM and inactive = higher.
How the values were obtained:
Test in all cases: inhibition of tumour cell growth, NCI panel, 48 h
IGROV-1 = test system: IGROV-1
PC-3 = test system: PC-3
NCI-H460 = test system: NCI-H460
HL-60 = test system: HL-60
COLO 205 = test system: COLO 205
SK-OV-3 = test system: SK-OV-3
SNB-19 = test system: SNB-19
Hs-578T = test system: Hs-578T
CAKI-1 = test system: CAKI-1
OVCAR-5 = test system: OVCAR-5
T47D = test system: T47D
MDA-MB-435 = test system: MDA-MB-435
MCF7 = test system: MCF7
SR = test system: SR
M14 = test system: M14
UACC-257 = test system: UACC-257
RPMI-8226 = test system: RPMI-8226
BT-549 = test system: BT-549
SNB-75 = test system: SNB-75
SN12C = test system: SN12C

SMILES | GI50 (IGROV-1) | GI50 (PC-3) | GI50 (NCI-H460) | GI50 (HL-60) | GI50 (COLO 205) | GI50 (SK-OV-3) | GI50 (SNB-19) | GI50 (Hs-578T) | GI50 (CAKI-1) | GI50 (OVCAR-5) | GI50 (T47D) | GI50 (MDA-MB-435) | GI50 (MCF7) | GI50 (SR) | GI50 (M14) | GI50 (UACC-257) | GI50 (RPMI-8226) | GI50 (BT-549) | GI50 (SNB-75) | GI50 (SN12C)
COc1cc(C2SCC(=O)N2c2ccc(-n3c(-c4ccccc4)nc4ccccc4c3=O)cc2)ccc1O (stereo not given) | > 10 µM (inactive) | > 100 µM (inactive) | 69.5 µM (inactive) | > 100 µM (inactive) | > 100 µM (inactive) | 82 µM (inactive) | > 100 µM (inactive) | 22.3 µM (inactive) | > 100 µM (inactive) | > 100 µM (inactive) | 30 µM (inactive) | > 100 µM (inactive) | 70 µM (inactive) | 26 µM (inactive) | > 100 µM (inactive) | > 100 µM (inactive) | 76.4 µM (inactive) | > 100 µM (inactive) | – | –
Cc1cc(Cl)ccc1OCC(=O)Nc1nc(N)nc(N)n1 | > 100 µM (inactive) | > 100 µM (inactive) | > 100 µM (inactive) | > 100 µM (inactive) | > 100 µM (inactive) | > 100 µM (inactive) | > 100 µM (inactive) | > 100 µM (inactive) | > 100 µM (inactive) | > 100 µM (inactive) | > 100 µM (inactive) | > 100 µM (inactive) | > 100 µM (inactive) | > 100 µM (inactive) | > 100 µM (inactive) | > 100 µM (inactive) | > 100 µM (inactive) | > 100 µM (inactive) | > 100 µM (inactive) | > 100 µM (inactive)
N#Cc1cccc(Nc2ccccc2SSc2ccccc2Nc2cccc(C#N)c2)c1 | 8.65 µM (inactive) | 4.82 µM (inactive) | 7.71 µM (inactive) | 4.76 µM (inactive) | > 10 µM (inactive) | 13.5 µM (inactive) | 7.76 µM (inactive) | 6.97 µM (inactive) | 9.02 µM (inactive) | 17.5 µM (inactive) | 12.3 µM (inactive) | 8.69 µM (inactive) | 7.52 µM (inactive) | – | 7.55 µM (inactive) | 13.6 µM (inactive) | 3.93 µM (inactive) | > 10 µM (inactive) | 8.59 µM (inactive) | 7.59 µM (inactive)
c1cc(-c2cnc(-c3ccc4c(c3)CCCO4)o2)ccn1 | 17.9 µM (inactive) | 11.8 µM (inactive) | – | 4.33 µM (inactive) | 18.5 µM (inactive) | 20.3 µM (inactive) | 11.9 µM (inactive) | 17.1 µM (inactive) | 15.6 µM (inactive) | 13.6 µM (inactive) | 16.6 µM (inactive) | 15.1 µM (inactive) | 14.7 µM (inactive) | 0.524 µM (active) | 18.6 µM (inactive) | 15.1 µM (inactive) | 6.24 µM (inactive) | 15.2 µM (inactive) | 12.2 µM (inactive) | 18.5 µM (inactive)
CCOC(=O)C(C(=O)OCC)C1C=CCC2c3ccccc3COCC21 (stereo not given) | 75.5 µM (inactive) | 42.6 µM (inactive) | 62.1 µM (inactive) | 22.4 µM (inactive) | 23.7 µM (inactive) | 85.5 µM (inactive) | > 100 µM (inactive) | 73.8 µM (inactive) | 26.5 µM (inactive) | > 100 µM (inactive) | 30.2 µM (inactive) | 36.9 µM (inactive) | 31.8 µM (inactive) | – | 49.9 µM (inactive) | 30.3 µM (inactive) | 41.5 µM (inactive) | 49 µM (inactive) | 96.6 µM (inactive) | 79.6 µM (inactive)
Cc1c(N2CCCC2)cc2c(c1NC(=O)c1ccccc1Cl)C(C)(C)CC2(C)C | 13.6 µM (inactive) | 15.5 µM (inactive) | 12.3 µM (inactive) | – | 18.2 µM (inactive) | 13.1 µM (inactive) | 15.2 µM (inactive) | 16.7 µM (inactive) | 13.3 µM (inactive) | 18 µM (inactive) | 11.5 µM (inactive) | 14.4 µM (inactive) | 13.8 µM (inactive) | 14.7 µM (inactive) | 13.5 µM (inactive) | 11.7 µM (inactive) | 12.9 µM (inactive) | 17.8 µM (inactive) | 15.5 µM (inactive) | 16.2 µM (inactive)
COc1cc2c(cc1OC)C(=O)N(c1ccc(OCCN3CCCC3)cc1)C2=O | > 100 µM (inactive) | > 100 µM (inactive) | > 100 µM (inactive) | > 100 µM (inactive) | > 100 µM (inactive) | > 100 µM (inactive) | > 100 µM (inactive) | > 100 µM (inactive) | > 100 µM (inactive) | > 100 µM (inactive) | > 100 µM (inactive) | > 100 µM (inactive) | > 100 µM (inactive) | > 100 µM (inactive) | > 100 µM (inactive) | > 100 µM (inactive) | > 100 µM (inactive) | > 100 µM (inactive) | – | > 100 µM (inactive)
COC(=O)c1ccc(/C=C2\Oc3ccccc3C2=O)cc1 | > 100 µM (inactive) | > 100 µM (inactive) | > 100 µM (inactive) | 16.4 µM (inactive) | > 100 µM (inactive) | > 100 µM (inactive) | > 100 µM (inactive) | > 100 µM (inactive) | 41.2 µM (inactive) | – | > 100 µM (inactive) | > 100 µM (inactive) | > 100 µM (inactive) | > 100 µM (inactive) | > 100 µM (inactive) | > 100 µM (inactive) | > 100 µM (inactive) | > 100 µM (inactive) | > 100 µM (inactive) | > 100 µM (inactive)
CCOC(=O)C1CCC/C1=N\NC(=N)N.Cc1cc(O)c(C(C)C)cc1S(=O)(=O)O (stereo not given) | > 100 µM (inactive) | > 100 µM (inactive) | > 100 µM (inactive) | > 100 µM (inactive) | > 100 µM (inactive) | > 100 µM (inactive) | > 100 µM (inactive) | > 100 µM (inactive) | – | > 100 µM (inactive) | > 100 µM (inactive) | > 100 µM (inactive) | > 100 µM (inactive) | > 100 µM (inactive) | > 100 µM (inactive) | > 100 µM (inactive) | > 100 µM (inactive) | > 100 µM (inactive) | 36.2 µM (inactive) | > 100 µM (inactive)
O=C1/C(=C\c2ccc([N+](=O)[O-])cc2)N(S(=O)(=O)c2ccccc2)c2ncccc21 | 18.3 µM (inactive) | 14 µM (inactive) | 18.7 µM (inactive) | 2.18 µM (inactive) | 19.5 µM (inactive) | 0.0212 µM (active) | 24.5 µM (inactive) | 31.2 µM (inactive) | 8.18 µM (inactive) | – | 13.4 µM (inactive) | 21.4 µM (inactive) | 24.7 µM (inactive) | 3.33 µM (inactive) | 17.4 µM (inactive) | 21.8 µM (inactive) | 5.43 µM (inactive) | 18.3 µM (inactive) | 14.5 µM (inactive) | 16.9 µM (inactive)
O=C(O)CC(C(=O)O)c1ccccc1[N+](=O)[O-] (stereo not given) | > 100 µM (inactive) | > 100 µM (inactive) | > 100 µM (inactive) | > 100 µM (inactive) | > 100 µM (inactive) | > 100 µM (inactive) | > 100 µM (inactive) | 25.6 µM (inactive) | > 100 µM (inactive) | > 100 µM (inactive) | > 100 µM (inactive) | > 100 µM (inactive) | > 100 µM (inactive) | – | > 100 µM (inactive) | > 100 µM (inactive) | > 100 µM (inactive) | > 100 µM (inactive) | > 100 µM (inactive) | > 100 µM (inactive)
Nc1ccc2[nH]cc(CCC(=O)O)c2c1 | > 100 µM (inactive) | > 100 µM (inactive) | – | 27.3 µM (inactive) | > 100 µM (inactive) | > 100 µM (inactive) | > 100 µM (inactive) | > 100 µM (inactive) | > 100 µM (inactive) | > 100 µM (inactive) | > 100 µM (inactive) | > 100 µM (inactive) | > 100 µM (inactive) | – | > 100 µM (inactive) | > 100 µM (inactive) | > 100 µM (inactive) | > 100 µM (inactive) | 46.1 µM (inactive) | > 100 µM (inactive)
CCN(CC)CCNc1ccc2ncn3c4c(OC)cccc4c(=O)c1c23 | 5.41 µM (inactive) | 3.97 µM (inactive) | 3 µM (inactive) | – | 1.91 µM (inactive) | 10.9 µM (inactive) | 6.15 µM (inactive) | 11.6 µM (inactive) | 4.89 µM (inactive) | – | 7.66 µM (inactive) | 6.58 µM (inactive) | 2.47 µM (inactive) | 3.4 µM (inactive) | 6.34 µM (inactive) | 21.1 µM (inactive) | – | > 10 µM (inactive) | 11.3 µM (inactive) | 2.93 µM (inactive)
CC(C)NC(=O)OCc1c(COC(=O)NC(C)C)n(C)c2c1ccc1cc(Cl)c(Cl)cc12 | 10.5 µM (inactive) | 14.9 µM (inactive) | 3.41 µM (inactive) | – | 10.9 µM (inactive) | 21.6 µM (inactive) | 13.4 µM (inactive) | 23.8 µM (inactive) | 2.09 µM (inactive) | 15.4 µM (inactive) | 5.82 µM (inactive) | 6.43 µM (inactive) | 3.28 µM (inactive) | 2.64 µM (inactive) | 15.5 µM (inactive) | 15.7 µM (inactive) | 10.3 µM (inactive) | 15.2 µM (inactive) | 13.4 µM (inactive) | –
Cc1n2nc(N)sc2n[n+]1CC(=O)c1ccccc1 | > 100 µM (inactive) | > 100 µM (inactive) | > 100 µM (inactive) | – | > 100 µM (inactive) | 24.3 µM (inactive) | > 100 µM (inactive) | > 100 µM (inactive) | > 100 µM (inactive) | > 100 µM (inactive) | > 100 µM (inactive) | > 100 µM (inactive) | > 100 µM (inactive) | – | > 100 µM (inactive) | > 100 µM (inactive) | > 100 µM (inactive) | > 100 µM (inactive) | > 100 µM (inactive) | > 100 µM (inactive)

Source: ChEMBL document CHEMBL1201862, “PubChem BioAssay data set” (2004)
